How the values were obtained:
PKCδI [1] = target: T1, PKCδI (Homo sapiens, UniProt Q05655); assay: In vitro kinase assay with recombinant PKCδI and SC35 as substrate; type: biochemical; conditions: 10 nM, 30 min incubation prior to assay, phosphatidyl serine and ATP
Procedure: Next, in vitro kinase assays were performed with recombinant proteins PKCδI and SC35 (as substrate) in a kinase buffer containing phosphatidyl serine and ATP; with and without 10 nM 5139627, 28578828 (30 min incubation prior to assay).

PKCδI [2] = target: T2, PKCδI (Mus musculus, UniProt P28867); assay: Western blot on mature adipocytes (inhibitors added day 6 of differentiation); type: cell-based; conditions: for phosphorylation of myelin basic protein (PKCδI substrate) / cleavage and release of the PKCδI catalytic domain: mature adipocytes, inhibitors added day 6 of differentiation, 24 h; for cleavage and release of the PKCδI catalytic domain: C-terminal PKCδ antibody
T2 construct: endogenous in cells; host or cells: 3T3L1 (differentiating pre-adipocytes, day 1; mature adipocytes, day 6)
T2 sequence (P28867 whole entry, the tested form may be a part): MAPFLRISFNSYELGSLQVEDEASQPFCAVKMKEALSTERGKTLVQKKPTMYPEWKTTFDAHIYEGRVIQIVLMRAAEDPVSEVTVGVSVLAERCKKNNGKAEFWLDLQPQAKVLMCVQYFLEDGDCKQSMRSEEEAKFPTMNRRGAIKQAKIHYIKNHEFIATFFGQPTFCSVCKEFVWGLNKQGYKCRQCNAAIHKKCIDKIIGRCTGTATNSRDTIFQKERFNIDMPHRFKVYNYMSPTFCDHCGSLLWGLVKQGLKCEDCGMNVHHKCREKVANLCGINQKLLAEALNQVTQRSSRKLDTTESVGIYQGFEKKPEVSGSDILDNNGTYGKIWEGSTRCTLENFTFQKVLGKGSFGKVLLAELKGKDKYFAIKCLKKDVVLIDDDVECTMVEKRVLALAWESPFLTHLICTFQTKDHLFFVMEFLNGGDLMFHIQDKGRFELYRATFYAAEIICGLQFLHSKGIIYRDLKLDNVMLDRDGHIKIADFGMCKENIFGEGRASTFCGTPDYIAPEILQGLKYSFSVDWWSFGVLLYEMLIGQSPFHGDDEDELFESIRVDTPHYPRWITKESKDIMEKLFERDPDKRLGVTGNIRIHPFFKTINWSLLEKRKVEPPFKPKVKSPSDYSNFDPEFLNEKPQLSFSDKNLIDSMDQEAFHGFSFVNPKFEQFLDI
Procedure: Next, compounds 5139627, 5320091, 72950115, 28578828, 61397826 and 43844983 were tested on mature adipocytes. The inhibitors were added on day 6 of differentiation when the adipocytes are lipid laden. After 24 h, the cells were harvested and western blot analysis was performed on whole cell lysates.

PKCδI [3] = target: T2, PKCδI; assay: Western blot on differentiating 3T3L1 cells (inhibitors added day 1 of differentiation); type: cell-based; conditions: 3T3L1, inhibitors added day 1 of differentiation, 24 h; for cleavage and release of the PKCδI catalytic domain: C-terminal PKCδ antibody
Procedure: The compounds identified from the docking modeling were tested for their ability to inhibit PKCδI. 3T3L1 cells were plated in 60 mm dishes and differentiated. PKCδI regulates cell cycle during differentiation of pre-adipocytes to adipocytes. The inhibitors were added on day 1 of differentiation during mitotic clonal expansion when PKCδI expression is high (18). After 24 h, the cells were harvested and western blot analysis was performed on whole cell lysates.

obese adipocytes = assay: WST-1 assay for cell viability; type: cell-based; conditions: 10 nM
Procedure: A WST-1 assay performed using obese adipocytes treated with 513627 to evaluate toxicity of compound 513627. Briefly, obese adipocytes were treated with 10 nM of compound 513627 and a WST-1 assay for cell viability was performed. FIG. 5 represents data from four experiments.

Bxl-xS and caspase9a = assay: PCR based expression of pro-apoptotic variants in adipocytes from obese donor; type: cell-based, human; conditions: about 10 nM, about 24 h
From the text: (§1) The C-terminal fragment of PKCδI phosphorylates its substrates that mediate expression of pro-apoptotic proteins. For a functional read-out, an assay was designed to measure: (1) Bcl-xL switching to its pro-apoptotic variant Bcl-xS and (2) Caspase9b switching to its pro-apoptotic variant caspase 9a. Briefly, adipocytes were freshly isolated from human visceral adipose tissue of lean and obese donors (IRB #20295; lean BMI 22.1 and 23; obese BMI 43.7 and 44.3; non-diabetic, nonsmokers, non-cancer).
Additionally, adipocytes from the obese donor were treated with about 10 nM of NP627 for about 24 h (n=3). Expression of Bxl-xL, Bxl-xS, caspase9a, andβ-actin (control) were analyzed using a PCR based technique (n=3).

other PKCs = assay: PKC kinase activity kit, colorimetric assay (ENZO), other PKC isozymes; type: biochemical; conditions: run in triplicate
Procedure: (§2) Briefly, a Protein Kinase C (PKC) kinase activity kit was used and a colorimetric assay (ENZO; run in triplicate) was performed. Relative kinase activity was calculated as (average absorbance of PKC isozyme−Average absorbance of blank)/quantity of pure kinase used per assay.

PKCδI [4] = target: T1, PKCδI; assay: Western blot on adipocytes from obese donor, PKCδI cleavage; type: cell-based; set-up: adipocytes from the obese donor were treated with about 10-100 nM NP627; endogenous in cells; host or cells: primary human adipocytes from visceral adipose tissue of an obese donor; conditions: about 10-100 nM, about 24 h
From the text: as §1
(§3) Additionally, adipocytes from the obese donor were treated with about 10-100 nM NP627 (compound 513627) for about 24 h (n=3). Expression of PKCδI_F, PKCδI_C, PKCδVIII, and β-Actin (control) were analyzed using western blotting.

PKCδI [5] = target: T1, PKCδI; assay: PKC kinase activity kit, colorimetric assay (ENZO); type: biochemical; conditions: run in triplicate
Procedure: as §2

PKCδVIII = target: T3, PKCδVIII (Homo sapiens, UniProt Q05655); assay: Western blot on adipocytes from obese donor, PKCδVIII; type: cell-based; conditions: about 10-100 nM, about 24 h
T3 construct: adipocytes from the obese donor were treated with about 10-100 nM NP627; endogenous in cells; host or cells: primary human adipocytes from visceral adipose tissue of an obese donor
T3 sequence (Q05655 1-707 isoform Q05655-2): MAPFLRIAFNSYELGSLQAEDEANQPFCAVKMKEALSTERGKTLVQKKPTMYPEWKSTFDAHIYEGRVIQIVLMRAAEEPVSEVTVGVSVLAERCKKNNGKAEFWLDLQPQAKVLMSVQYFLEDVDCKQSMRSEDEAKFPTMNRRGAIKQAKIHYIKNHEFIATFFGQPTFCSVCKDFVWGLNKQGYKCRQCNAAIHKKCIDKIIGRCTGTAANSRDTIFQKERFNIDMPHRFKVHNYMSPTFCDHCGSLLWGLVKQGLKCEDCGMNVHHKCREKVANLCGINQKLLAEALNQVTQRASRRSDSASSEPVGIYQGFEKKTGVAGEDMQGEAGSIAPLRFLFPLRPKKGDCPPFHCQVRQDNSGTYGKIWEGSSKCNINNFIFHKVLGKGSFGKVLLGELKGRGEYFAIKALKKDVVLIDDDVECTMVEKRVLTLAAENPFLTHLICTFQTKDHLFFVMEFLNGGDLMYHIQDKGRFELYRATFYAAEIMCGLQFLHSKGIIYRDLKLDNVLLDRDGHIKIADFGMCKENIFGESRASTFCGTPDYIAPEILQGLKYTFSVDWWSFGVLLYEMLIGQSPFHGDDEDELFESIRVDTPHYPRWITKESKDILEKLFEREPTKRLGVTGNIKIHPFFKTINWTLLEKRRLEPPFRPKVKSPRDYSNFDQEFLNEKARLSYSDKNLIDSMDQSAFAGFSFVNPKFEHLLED
From the text: as §1, §3

[6] = both pre-adipocytes and mature adipocytes

T1 sequence (Q05655 whole entry): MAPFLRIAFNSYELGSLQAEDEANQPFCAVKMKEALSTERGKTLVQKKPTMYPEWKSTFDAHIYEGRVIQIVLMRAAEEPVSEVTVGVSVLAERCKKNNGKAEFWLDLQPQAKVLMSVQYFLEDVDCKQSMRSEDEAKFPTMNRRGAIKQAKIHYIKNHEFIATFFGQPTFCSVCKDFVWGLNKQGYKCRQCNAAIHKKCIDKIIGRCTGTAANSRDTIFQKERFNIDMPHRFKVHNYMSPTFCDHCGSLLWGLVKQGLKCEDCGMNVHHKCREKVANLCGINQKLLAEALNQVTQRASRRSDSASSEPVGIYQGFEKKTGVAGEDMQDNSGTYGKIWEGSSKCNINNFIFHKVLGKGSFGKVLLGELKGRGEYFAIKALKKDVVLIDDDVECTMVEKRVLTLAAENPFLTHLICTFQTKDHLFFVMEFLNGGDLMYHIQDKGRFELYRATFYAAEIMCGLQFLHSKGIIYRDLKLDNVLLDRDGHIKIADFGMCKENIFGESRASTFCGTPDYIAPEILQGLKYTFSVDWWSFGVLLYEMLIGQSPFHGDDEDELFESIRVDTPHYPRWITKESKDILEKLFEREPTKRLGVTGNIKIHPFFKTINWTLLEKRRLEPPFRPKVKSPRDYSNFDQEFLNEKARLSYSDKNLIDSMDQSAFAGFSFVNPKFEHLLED

Structure (SMILES)	PKCδI activity (PKCδI [1])	phosphorylation of myelin basic protein (PKCδI substrate) (PKCδI [2])	cleavage and release of the PKCδI catalytic domain (PKCδI [2])	phosphorylation of myelin basic protein (PKCδI substrate) (PKCδI [3])	cleavage and release of the PKCδI catalytic domain (PKCδI [3])	other PKC isozyme activities (other PKCs)	cleavage of PKCδI (PKCδI [4])	specificity for PKCδI (relative kinase activity) (PKCδI [5])	PKCδVIII (alternatively spliced variant) (PKCδVIII)	inhibition of PKCδI cleavage (PKCδI [2]; [6])	inhibition of phosphorylation of MBP (PKCδI [2]; [6])	cellular toxicity (cell viability) (obese adipocytes)	expression of Bxl-xS (Bxl-xS and caspase9a)	expression of caspase9a (Bxl-xS and caspase9a)
OCCNc1cc(-c2cc(CO)ccn2)c2cc[nH]c2n1 [compound 28578828, 2-({4-[4-(hydroxymethyl)pyridin-2-yl]-1H-pyrrolo[2,3-b]pyridin-6-yl}amino)ethanol]	specifically inhibit PKCδI activity	decreased phosphorylation	inhibited the cleavage and release	decreased phosphorylation	inhibit the cleavage and release									
N=C(CCN1C(=O)c2ccccc2C1=O)NNC(=O)CCCC(=O)NNC(=N)CCN1C(=O)c2ccccc2C1=O [compound 5139627, N′~1~,N′~5~-bis[3-(1,3-dioxo-1,3-dihydro-2H-isoindo1-2-yl)propanimidoyl]pentanedihydrazide]	specifically inhibit PKCδI activity	decreased phosphorylation	inhibited the cleavage and release		inhibit the cleavage and release	not inhibited	specifically inhibits cleavage of PKCδI	specificity for PKCδI	not inhibited			did not appear to cause cellular toxicity	decrease expression	decrease expression
CC(C)(O)C(=O)C=Cc1ccc2c(c1)OCO2 [compound 5320091, 1-(1,3-benzodioxol-5-yl)-4-hydroxy-4-methyl-1-penten-3-one]		decreased phosphorylation	inhibited the cleavage and release	decreased phosphorylation	inhibit the cleavage and release									

Now from value to compound, other results behind:

PKCδI activity (PKCδI [1])	phosphorylation of myelin basic protein (PKCδI substrate) (PKCδI [2])	cleavage and release of the PKCδI catalytic domain (PKCδI [2])	phosphorylation of myelin basic protein (PKCδI substrate) (PKCδI [3])	cleavage and release of the PKCδI catalytic domain (PKCδI [3])	other PKC isozyme activities (other PKCs)	cleavage of PKCδI (PKCδI [4])	specificity for PKCδI (relative kinase activity) (PKCδI [5])	PKCδVIII (alternatively spliced variant) (PKCδVIII)	inhibition of PKCδI cleavage (PKCδI [2]; [6])	inhibition of phosphorylation of MBP (PKCδI [2]; [6])	Structure (SMILES)	cellular toxicity (cell viability) (obese adipocytes)	expression of Bxl-xS (Bxl-xS and caspase9a)	expression of caspase9a (Bxl-xS and caspase9a)
	decreased phosphorylation	inhibited the cleavage and release	decreased phosphorylation	inhibit the cleavage and release							Cc1nc2c(c(N(C)C)n1)CCN(C(=O)[C@@H]1C[C@@H](O)CN1)C2 [compound 61397826, (3R,5S)-5-{[4-(dimethylamino)-2-methyl-5,8-dihydropyrido[3,4-d]pyrimidin-7(6H)-yl]carbonyl}-3-pyrrolidinol]			
	decreased phosphorylation	inhibited the cleavage and release	decreased phosphorylation	inhibit the cleavage and release					completely inhibit	completely inhibit	CN(Cc1cnccn1)C(=O)c1cccc(C#CC(C)(C)O)c1 [compound 43844983, 3-(3-hydroxy-3-methylbut-1-yn-1-yl)-N-methyl-N-(pyrazin-2-ylmethyl)benzamide]			
	decreased phosphorylation	inhibited the cleavage and release	decreased phosphorylation	inhibit the cleavage and release							CCN(C/C=C/c1ccccc1)C(=O)CCc1nc2ccccc2[nH]1 [compound 72950115, 3-(1H-benzimidazol-2-yl)-N-ethyl-N-[(2E)-3-phenylprop-2-en-1-yl]propanamide]			
